Like-named read-outs stand apart in the source and are kept apart here.

Test [1] deals with NGF receptors on PC12 cells (TrkA+p75). As to the kind of experiment: NGF binding (125I-NGF) using PC12 cells. Also on record: species or system rat. On the procedure: NGF binding was evaluated using methods familiar to those who are skilled in the art. Briefly, cells expressing one or both NGF receptors (PC12: TrkA+p75; A875: p75 alone; HEK/CHO_trkA: TrkA alone) were harvested by replacing the medium with the cell dissociation buffer (Amersham) and incubating at 37° C. for 15 min. […] For most compounds, multiple dose-response curves were generated.
The IC50 data shown in Tables A-J were acquired using the procedure described herein using PC12 cells.

The subject of the next test is PC12 cells. As to the kind of experiment: Inhibition of NGF-induced neurite outgrowth. In kind it is cell-based. As to conditions: Rattus norvegicus, PC-12, 96 h, Table 3, 4 days exposure to NGF. As to the method:
This assay is run as a further functional marker of NGF antagonism and takes advantage of the differentiation of PC12 cells (neurite outgrowth) induced by NGF. Cultures of PC12 cells are grown on Terasaki plates pre-coated with poly-D-lysine. Cells are exposed to NGF (1-50 (preferably 5) ng/ml) to induce neurite outgrowth as described elsewhere [LA Greene & AS Tischler, Establishment of a noradrenergic clonal line of rat adrenal pheochromocytoma cells which respond to nerve growth factor, Proc Natl Acad Sci USA. 1976 July; 73(7): 2424-2428]. In addition to NGF, cells are exposed to varying concentration of the compounds or vehicle. Following 4 days of exposure to NGF in the presence or absence of compound, neurite outgrowth is quantified. A neurite is scored if its caliber from origin to terminal is approximately the same and the length is equal to or greater than 1.5 the cell body diameter. The number of neurite bearing cells per total number of viable cells is calculated for each condition; the number of cells with neurites in the presence of NGF (without compound exposure) is considered to represent maximal (100%) outgrowth, to which the inhibitory effect of compounds of the invention on NGF-induced outgrowth is compared.

The test system of test [2] is NGF-induced ERK phosphorylation. As to the kind of experiment: Inhibition of NGF-induced Erk 1/2 phosphorylation (pERK). Conditions: Rattus norvegicus, Table 2. It counts as cell-based. As to the method:
This assay is useful for establishing that the compounds of the invention are functional NGF antagonists, not receptor agonists (an agonist could conceivably block NGF binding but actually activate the receptor). Erk 1/2 is a kinase activated down stream of TrkA and is a well studied member of the NGF-induced signal transduction cascade.
PC12 cells expressing TrkA and p75 are acutely exposed to 1 ng/mL NGF (15 min; 37° C.; 5% CO2) that is pre-incubated (30 min; room temperature) with or without the compounds. Cells are lysed in Laemmli sample buffer (for SDS-PAGE) or a lysis buffer containing Triton X-100 (for ELISA). Following SDS-PAGE, proteins are electroblotted onto nitrocellulose and immunoprobed for phosphorylated Erk 1 and 2. Blocking and primary antibody incubations of immunoblots are performed in Tris-buffered saline-Tween (10 mM Tris, pH 8.0, 150 mM NaCl, and 0.2% Tween 20) supplemented with 5% (w/v) bovine serum albumin (BSA); secondary antibody incubations are performed in 5% (w/v) dried skim milk powder. Immunoreactive bands are detected by chemiluminescence.
A quantitative method to detect phosphorylated Erk 1/2 by immunofluorescence is also used. Neuroscreen-1 cells are grown in a 96 well plate. NGF preincubated with or without the compounds for 30 minutes, is added to the cells for 5 minutes at 37° C. Cells are then fixed and stained with an antibody against phosphor-ERK 1/2. A fluorescently labeled secondary antibody is used to show the presence of phosphorylated ERK 1/2. Quantitative results are generated by photographing the wells with light of the appropriate wavelength, followed by software based image analysis.

The mark [3] stands for this setting: Table 3, read-out: NGF Binding Assay IC50.
[4] abbreviates: Table B (Formula Ib), NGF binding, PC12 cells, read-out: IC50.
The mark [5] stands for this setting: Table J (Formula VIII), NGF binding, PC12 cells, read-out: IC50.
The mark [6] stands for this setting: Table I (Formula VII), NGF binding, PC12 cells, read-out: IC50.
Where [7] appears, read: Table A (Formula Ia), NGF binding, PC12 cells, read-out: IC50.
[8] abbreviates: Table 2, read-out: NGF Binding Assay IC50.

The term IC50 denotes the concentration that inhibits the measured activity by half. `O=C(O)c1cccc(N2Cc3cc(C(=O)O)ccc3C2=O)c1` [Compound 12A, 2-(3-Carboxyphenyl)-1-oxoisoindoline-5-carboxylic acid]: the results for the IC50 (in test [1] (setting [3]); in test [1] (setting [4]); in the test with PC12 cells) were 10 to 29 µM, 10 to 29 µM and 5 to 15 µM, respectively. In the case of `O=C(O)c1ccc2c(c1)C(=O)N(CCN1C(=O)c3ccc(C(=O)O)cc3C1=O)C2=O` [Compound 41C], the IC50 in test [1] (Table E (Formula IIIA), NGF binding, PC12 cells, read-out: IC50) is below 10 µM. For the molecule `O=C1c2ccc(-c3ccc4c(c3)C(=O)N(CCCS(=O)(=O)O)C4=O)cc2C(=O)N1CCCS(=O)(=O)O` [Compound 11C], the IC50 in test [2] lay in the range of 0.1 to 5 µM. Turning to `O=C(O)CCCN1C(=O)c2cccc3c(S(=O)(=O)O)ccc(c23)C1=O` [Compound 37G], the IC50 in test [1] (setting [5]) was above 50 µM. `Nc1cc2c3c(cc(C(=O)O)cc3c1)C(=O)N(CCCC(=O)O)C2=O` [Compound 18G, 8-Amino-2-(3-carboxypropyl)-1,3-dioxo-2,3-dihydro-1H-benzo[de]isoquinoline-5-carboxylic acid]: the IC50 in test [1] (setting [6]) was below 10 µM. Regarding `O=C(O)CCCCN1C(=O)c2ccc(-c3ccc4c(c3)C(=O)N(CCCCC(=O)O)C4=O)cc2C1=O` [Compound 10C], the IC50 in test [2] is 0.1 to 5 µM. For `O=C(O)CCCN1C(=O)c2cccc3cccc(c23)C1=O` [Compound 26G], in test [1] (setting [5]), the IC50 is above 50 µM.

On to `NC(=O)c1cc2c3c(cccc3c1)C(=O)N(CCCC(=O)O)C2=O` [Compound 30G], for which the IC50 in test [1] (setting [5]) lay in the range of 10 to 29 µM. With `O=C(O)CCCCCCN1C(=O)c2ccc(-c3ccc4c(c3)C(=O)N(CCCCCCC(=O)O)C4=O)cc2C1=O` [Compound 21C], the IC50 in test [2] fell in the range of 5 to 15 µM. `O=C(O)c1ccc(Cl)c(N2C(=O)c3cccc([N+](=O)[O-])c3C2=O)c1` [Compound 18]: the IC50 in test [1] (setting [7]) is above 50 µM. Regarding `O=C(O)CCCN1C(=O)c2cccc3cc([N+](=O)[O-])cc(c23)C1=O` [Compound 27G, 4-(5-Nitro-1,3-dioxo-1H-benzo[de]isoquinolin-2(3H)-yl)butanoic acid], the IC50 in test [1] (setting [5]) was below 10 µM. With `O=C(O)CCCN1C(=O)c2cc(C(=O)O)cc3cc([N+](=O)[O-])cc(c23)C1=O` [Compound 17G, 2-(3-Carboxypropyl)-8-nitro-1,3-dioxo-2,3-dihydro-1H-benzo[de]isoquinoline-5-carboxylic acid], the IC50 in test [1] (setting [6]) was below 10 µM. As to `O=C(O)CCCN1C(=O)c2cccc3c(Cl)ccc(c23)C1=O` [Compound 38G], the IC50 in test [1] (setting [5]) was in the range of 10 to 29 µM. `O=C(O)CCCN1C(=O)c2cccc3cc(-c4cccc(C(=O)O)c4)cc(c23)C1=O` [Compound 45G] gave an IC50 in test [2] of 15 to 25 µM. Consider `CC(=O)Nc1cc2c3c(cccc3c1)C(=O)N(CCCC(=O)O)C2=O` [Compound 29G], for which the IC50 in test [1] (setting [5]) was below 10 µM. Take `O=C(O)CCCN1C(=O)c2cccc3c([N+](=O)[O-])ccc(c23)C1=O` [Compound 35G]: in test [1] (setting [5]), the IC50 was 10 to 29 µM. Consider `O=C(O)CCCN1C(=O)c2cccc3cc(-c4nnn[nH]4)cc(c23)C1=O` [Compound 46G], for which the IC50 (in test [2]; in the test with PC12 cells) was 5 to 15 µM each time. `O=C(O)CCCN1C(=O)c2cccc3cc(C(=O)O)cc(c23)C1=O` [Compound 33G]: the IC50 in test [1] (setting [5]) was in the range of 10 to 29 µM. As for `N#Cc1ccc2c3c(cccc13)C(=O)N(CCCC(=O)O)C2=O` [Compound 34G], the IC50 in test [1] (setting [5]) lay within 10 to 29 µM.

`CC(=O)Nc1cc2c3c(cc(C(=O)O)cc3c1)C(=O)N(CCCC(=O)O)C2=O` [Compound 19G, 8-(Acetylamino)-2-(3-carboxypropyl)-1,3-dioxo-2,3-dihydro-1H-benzo[de]isoquinoline-5-carboxylic acid]: the IC50 in test [2] is 5 to 15 µM; in test [1] (setting [8]) it was below 10 µM; in test [1] (setting [6]) it was below 10 µM. For the molecule `CC(C)Nc1cc2c3c(cc(NC(C)C)cc3c1)C(=O)N(CCCC(=O)O)C2=O` [Compound 16G], in test [1] (setting [6]), the IC50 was 10 to 29 µM. For `O=C(O)CCCN1C(=O)c2cccc3c(C(=O)c4ccccc4)ccc(c23)C1=O` [Compound 40G], the IC50 in test [1] (setting [5]) fell in the range of 10 to 29 µM.

The molecule `O=C(O)CCCN1C(=O)c2ccc(-c3ccc4c(c3)C(=O)N(CCCc3nnn[nH]3)C4=O)cc2C1=O` [Compound 23C] yielded an IC50 in test [2] of 0.1 to 5 µM. Take `CN(C)S(=O)(=O)c1cc2c3c(cccc3c1)C(=O)N(CCCC(=O)O)C2=O` [Compound 31G]: the IC50 in test [1] (setting [5]) was above 50 µM.

In the case of `CCOC(=O)c1cccc(N2Cc3cc(C(=O)O)ccc3C2=O)c1` [Compound 15A], the IC50 in test [2] was in the range of 5 to 15 µM.

`O=C(O)c1cccc(N2C(=O)c3cc(-n4cccc4)cc4cc(-n5cccc5)cc(c34)C2=O)c1` [Compound 21G]: the half-inhibitory concentration (IC50) in test [1] (setting [6]) was above 50 µM.

Regarding `O=C(O)CCCN1C(=O)c2cccc3c(C(=O)O)ccc(c23)C1=O` [Compound 39G], in test [1] (setting [5]), the half-maximal inhibitory concentration (IC50) was in the range of 10 to 29 µM.

Consider `O=C(O)CCCCCN1C(=O)c2ccc(-c3ccc4c(c3)C(=O)N(CCCCCC(=O)O)C4=O)cc2C1=O` [Compound 19C], for which the IC50 in test [2] lay in the range of 0.1 to 5 µM.

Turning to `N#Cc1ccc2c(c1)CN(c1cccc(C(=O)O)c1)C2=O` [Compound 8A], the IC50 in test [1] (setting [4]) is above 50 µM.

On to `O=C(O)CCCCN1C(=O)c2ccc(C(=O)O)cc2C1=O` [Compound 2], for which the IC50 in test [1] (setting [7]) is above 50 µM. Turning to `O=C(O)CCCN1C(=O)c2cccc3c(Br)ccc(c23)C1=O` [Compound 36G], the IC50 in test [1] (setting [5]) was 30 to 50 µM. Regarding `N#Cc1cc2c3c(cc(C#N)cc3c1)C(=O)N(CCCC(=O)O)C2=O` [Compound 20G], the IC50 in test [1] (setting [6]) is below 10 µM. For the molecule `O=C(O)CCCCCCCN1C(=O)c2ccc(-c3ccc4c(c3)C(=O)N(CCCCCCCC(=O)O)C4=O)cc2C1=O` [Compound 22C], in test [2], the IC50 lay within 5 to 15 µM.

`O=C(O)CCN1C(=O)c2ccc(-c3ccc4c(c3)C(=O)N(CCC(=O)O)C4=O)cc2C1=O` [Compound 9C] returned an IC50 in test [2] of 5 to 15 µM. With `O=C(O)c1ccc2c(c1)C(=O)N(c1cc(C(=O)O)ccc1Cl)C2=O` [Compound 6], the half-inhibitory concentration (IC50) in test [1] (setting [7]) was above 50 µM. For the molecule `O=C(O)c1cccc(N2C(=O)c3ccc(C(=O)O)cc3C2=O)c1` [Compound 3], the IC50 in test [1] (setting [7]) is above 50 µM. With `Nc1cc2c3c(cccc3c1)C(=O)N(CCCC(=O)O)C2=O` [Compound 28G, 4-(5-Amino-1,3-dioxo-1H-benzo[de]isoquinolin-2(3H)-yl)butanoic acid], the IC50 in test [1] (setting [5]) was below 10 µM.

For the molecule `O=C(O)CCCN1C(=O)c2ccc(C(=O)O)cc2C1=O` [Compound 1], the IC50 in test [1] (setting [7]) was above 50 µM. Regarding `CN(C)c1cc2c3c(cc(N(C)C)cc3c1)C(=O)N(CCCC(=O)O)C2=O` [Compound 15G], the IC50 in test [1] (setting [6]) fell in the range of 30 to 50 µM.

In the test with PC12 cells, `O=C(O)c1ccc(Cl)c(N2C(=O)c3ccc4c5c(ccc(c35)C2=O)C(=O)N(c2cc(C(=O)O)ccc2Cl)C4=O)c1` [Compound 3D] yielded an IC50 of 0.1 to 5 µM. Turning to `N#Cc1cc2c3c(cccc3c1)C(=O)N(CCCC(=O)O)C2=O` [Compound 32G], the IC50 is 5 to 15 µM in test [2]; below 10 µM in test [1] (setting [8]); below 10 µM in test [1] (setting [3]); below 10 µM in test [1] (setting [5]); 5 to 15 µM in the test on PC12 cells. Turning to `CN(C)S(=O)(=O)c1ccc2c3c(cccc13)C(=O)N(CCCC(=O)O)C2=O` [Compound 41G], the IC50 in test [1] (setting [5]) was below 10 µM. `O=C(O)CCCN1C(=O)c2ccc(-c3ccc4c(c3)C(=O)N(CCCC(=O)O)C4=O)cc2C1=O` [Compound 1C] had an IC50 in test [2] of 0.1 to 5 µM.

Regarding `Nc1ccc(C(=O)O)cc1N1C(=O)c2ccc3c4c(ccc(c24)C1=O)C(=O)N(C(CCC(=O)O)C(=O)O)C3=O` (stereo not drawn) [Compound 9D], the IC50 in test [2] lay within 5 to 15 µM; in the test with PC12 cells it was 0.1 to 5 µM.

The values are drawn from patent US20090082368A1, “METHODS OF MODULATING NEUROTROPHIN-MEDIATED ACTIVITY” (PainCeptor Pharma Corporation, priority 2007, published 2009).
